Calls of active or inactive are those of the source. No cut-off for these calls is given here.
Columns and labels:
[1] = target: Acetylcholinesterase (Electrophorus electricus) (UniProt O42275); test: Inhibition of electric eel AChE at 50 uM using acetylthiocholine iodide as substrate and measured for 1 min by spectrophotometrc analysis relative to control
[2] = target: Cholinesterase (Equus caballus) (UniProt P81908); test: Reversible inhibition of equine serum BuChE assessed as residual enzyme activity at IC50 using S-butyrylthiocholine iodide as substrate preincubated with enzyme for 60 mins followed by 80-fold dilution with BTC and DTNB and measured for 1 min by spectrophotometric analysis relative to control; type: cell-free; settings: time 61.0 min
Sequence of Cholinesterase (Equus caballus) (P81908 whole entry): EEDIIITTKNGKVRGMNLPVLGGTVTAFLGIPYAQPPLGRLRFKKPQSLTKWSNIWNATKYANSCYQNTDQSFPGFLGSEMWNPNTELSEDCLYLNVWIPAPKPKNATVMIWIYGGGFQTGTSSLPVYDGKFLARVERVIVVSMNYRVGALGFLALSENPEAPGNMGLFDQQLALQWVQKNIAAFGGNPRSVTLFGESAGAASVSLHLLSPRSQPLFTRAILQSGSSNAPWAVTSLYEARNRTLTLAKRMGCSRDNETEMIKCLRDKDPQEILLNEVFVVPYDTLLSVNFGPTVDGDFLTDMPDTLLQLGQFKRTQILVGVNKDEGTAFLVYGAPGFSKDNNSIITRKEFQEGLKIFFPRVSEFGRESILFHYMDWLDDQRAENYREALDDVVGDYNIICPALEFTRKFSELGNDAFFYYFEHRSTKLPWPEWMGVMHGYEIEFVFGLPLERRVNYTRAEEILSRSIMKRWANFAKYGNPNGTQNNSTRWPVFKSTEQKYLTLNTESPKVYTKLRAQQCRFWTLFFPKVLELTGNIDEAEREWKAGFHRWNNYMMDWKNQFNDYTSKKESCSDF

[3] = target: Cholinesterase (Equus caballus) (UniProt P81908); test: Inhibition of equine serum BuChE assessed as residual enzyme activity at 50 uM using S-butyrylthiocholine iodide as substrate and measured for 60 secs by spectrophotometric analysis relative to control; type: cell-free; settings: time 60.0 sec
[4] = target: Cholinesterase (Equus caballus) (UniProt P81908); test: Inhibition of equine serum BuChE assessed as residual enzyme activity at 10 uM using S-butyrylthiocholine iodide as substrate and measured for 60 secs by spectrophotometric analysis relative to control; type: cell-free; settings: time 60.0 sec
Trypsin (Homo sapiens) [5] = target: T1, Trypsin (Homo sapiens) (UniProt P07477+P07478+P35030); test: Inhibition of trypsin (unknown origin) assessed as residual enzyme activity at 50 uM using 4-nitrophenyl acetate as substrate and measured for 1 min by spectrophotometric analysis relative to control; type: protein assay
Cholinesterase [6] = target: T2, Cholinesterase (Equus caballus, UniProt P81908); test: Inhibition of equine serum BuChE using S-butyrylthiocholine iodide as substrate and measured for 60 secs by Ellman's method; type: cell-free
T2 sequence (P81908 whole entry): as above

[7] = target: Acetylcholinesterase (Electrophorus electricus) (UniProt O42275); test: Inhibition of electric eel AChE assessed as residual enzyme activity at 20 uM using acetylthiocholine iodide as substrate and measured for 1 min by spectrophotometrc analysis relative to control
Cholinesterase [8] = target: T2, Cholinesterase; test: (§1) Substrate activity at equine serum BuChE assessed as compound hydrolysis at 10XIC50 measured after 1 hr by HPLC analysis; type: ADME, cell-free; settings: horse, serum, 1 h
Trypsin (Homo sapiens) [9] = target: T1, Trypsin (Homo sapiens); test: Inhibition of trypsin (unknown origin) assessed as residual enzyme activity at 10 uM using 4-nitrophenyl acetate as substrate and measured for 1 min by spectrophotometric analysis relative to control; type: protein assay
Trypsin (Homo sapiens) [10] = target: T1, Trypsin (Homo sapiens); test: Inhibition of trypsin (unknown origin) at 50 uM using 4-nitrophenyl acetate as substrate and measured for 1 min by spectrophotometric analysis relative to control; type: protein assay
[11] = target: Acetylcholinesterase (Electrophorus electricus) (UniProt O42275); test: Inhibition of electric eel AChE assessed as residual enzyme activity at 10 uM using acetylthiocholine iodide as substrate and measured for 1 min by spectrophotometrc analysis relative to control
[12] = target: Acetylcholinesterase (Electrophorus electricus) (UniProt O42275); test: Inhibition of electric eel AChE assessed as residual enzyme activity at 50 uM using acetylthiocholine iodide as substrate and measured for 1 min by spectrophotometrc analysis relative to control
[13] = target: Cholinesterase (Equus caballus) (UniProt P81908); test: Inhibition of equine serum BuChE assessed as residual enzyme activity at 20 uM using S-butyrylthiocholine iodide as substrate and measured for 60 secs by spectrophotometric analysis relative to control; type: cell-free; settings: time 60.0 sec
Trypsin (Homo sapiens) [14] = target: T1, Trypsin (Homo sapiens); test: Inhibition of trypsin (unknown origin) assessed as residual enzyme activity at 20 uM using 4-nitrophenyl acetate as substrate and measured for 1 min by spectrophotometric analysis relative to control; type: protein assay
[15] = target: Acetylcholinesterase (Electrophorus electricus) (UniProt O42275); test: Inhibition of electric eel AChE at 100XIC50 for BuChE using acetylthiocholine iodide as substrate and measured for 1 min by spectrophotometrc analysis
[16] = target: Acetylcholinesterase (Electrophorus electricus) (UniProt O42275); test: Inhibition of electric eel AChE at 25XIC50 for BuChE using acetylthiocholine iodide as substrate and measured for 1 min by spectrophotometrc analysis relative to control
[17] = target: BuChE (butyrylcholinesterase) (Equus caballus, UniProt P81908); test: as §1; type: ADME, cell-free; settings: horse, equine serum butyrylcholinesterase (BuChE), read-out: Drug metabolism
Sequence of BuChE (butyrylcholinesterase) (P81908 whole entry): as above

[18] = Drug metabolism in sodium phosphate buffer assessed as compound hydrolysis at 10XIC50 measured after 24 hrs by HPLC analysis; type: ADME; settings: read-out: Drug metabolism
[19] = target: Cholinesterase (Equus caballus) (UniProt P81908); test: Irreversible inhibition of equine serum BuChE assessed as residual enzyme activity at IC50 using S-butyrylthiocholine iodide as substrate preincubated with enzyme for 60 mins followed by 80-fold dilution with BTC and DTNB and measured for 1 min by spectrophotometric analysis relative to control; type: cell-free; settings: time 61.0 min

Sequence of Acetylcholinesterase (Electrophorus electricus) (O42275 24-633 limits assumed): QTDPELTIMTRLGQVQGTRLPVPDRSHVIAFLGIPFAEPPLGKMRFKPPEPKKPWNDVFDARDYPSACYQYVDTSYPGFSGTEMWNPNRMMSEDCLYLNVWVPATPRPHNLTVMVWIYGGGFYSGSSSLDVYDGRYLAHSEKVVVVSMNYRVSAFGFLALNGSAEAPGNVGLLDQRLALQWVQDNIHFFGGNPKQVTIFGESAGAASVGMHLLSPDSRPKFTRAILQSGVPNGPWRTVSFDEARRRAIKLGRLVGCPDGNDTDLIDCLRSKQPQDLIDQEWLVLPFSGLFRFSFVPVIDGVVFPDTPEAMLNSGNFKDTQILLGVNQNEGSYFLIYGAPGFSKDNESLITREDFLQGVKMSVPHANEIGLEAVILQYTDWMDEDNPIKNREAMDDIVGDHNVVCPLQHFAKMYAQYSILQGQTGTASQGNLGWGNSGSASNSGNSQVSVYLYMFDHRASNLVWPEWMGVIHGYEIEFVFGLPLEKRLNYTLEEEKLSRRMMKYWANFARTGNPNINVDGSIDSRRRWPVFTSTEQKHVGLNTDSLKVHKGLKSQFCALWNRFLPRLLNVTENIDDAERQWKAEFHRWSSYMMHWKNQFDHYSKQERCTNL

Compound | Ratio [2] | Ratio [3] | Ratio [4] | Ratio (Trypsin (Homo sapiens) [5]) | IC50 (Cholinesterase [6]) | Ratio [7] | Drug metabolism (Cholinesterase [8]) | Ratio (Trypsin (Homo sapiens) [9]) | inhibition (Trypsin (Homo sapiens) [10]) | Ratio [11] | Ratio [12] | Ratio [13] | Ratio (Trypsin (Homo sapiens) [14]) | inhibition [15] | metabolised at 1 h [17] | degraded at 24 h [18] | further results
C[N+](C)(C)CCNC(=O)CNC(=O)OCC1c2ccccc2-c2ccccc21.[I-] | 1 | 0.07 | 0.36 | 1.06 | 3.7 µM | 0.95 | Metabolite_Notdetected | 0.96 | < 5% | 0.99 | 0.84 | 0.21 | 0.96 | Active | – | – | inhibition [1]: 10%
O=C(O)CNC(=O)OCC1c2ccccc2-c2ccccc21 | – | – | – | – | ≥ 200 µM | – | – | – | – | – | – | – | – | – | – | – | –
C[N+](C)(C)CCNC(=O)[C@H](Cc1ccccc1)NC(=O)OCC1c2ccccc2-c2ccccc21.[I-] | 1.01 | 0.02 | 0.07 | 0.95 | 0.6 µM | 0.99 | Metabolite_Notdetected | 1.01 | < 5% | 0.97 | 0.89 | 0.03 | 1.01 | Active | – | – | inhibition [1]: 10%
CC(C)(C)OC(=O)n1cc(C[C@H](NC(=O)OCC2c3ccccc3-c3ccccc32)C(=O)NCC[N+](C)(C)C)c2ccccc21.[I-] | 0.99 | < 0.01 | 0.04 | 0.94 | 0.17 µM | 0.87 | Metabolite_Notdetected | 1 | < 5% | 0.96 | 0.68 | 0.02 | 0.93 | Active | – | – | inhibition [1]: 30%; inhibition [16]: 10%
CC(C)(C)OC(=O)NCCCC[C@H](NC(=O)OCC1c2ccccc2-c2ccccc21)C(=O)NCC[N+](C)(C)C.[I-] | 1.04 | 0.01 | 0.06 | 0.97 | 0.14 µM | 1 | Metabolite_Notdetected | 1 | < 5% | 1.01 | 0.81 | 0.03 | 0.95 | Active | – | – | inhibition [1]: 20%
C[C@H](NC(=O)OCC1c2ccccc2-c2ccccc21)C(=O)O | – | – | – | – | ≥ 200 µM | – | – | – | – | – | – | – | – | – | – | – | –
CC(C)(C)OC(=O)n1cc(C[C@H](NC(=O)OCC2c3ccccc3-c3ccccc32)C(=O)OCC[N+](C)(C)C)c2ccccc21 | – | – | – | – | 0.4 µM | – | – | – | – | – | – | – | – | – | ~25% | ~20% | –
CC(C)C[C@H](NC(=O)OCC1c2ccccc2-c2ccccc21)C(=O)NCC[N+](C)(C)C.[I-] | 1.01 | 0.03 | 0.21 | 0.99 | 1.8 µM | 1.01 | Metabolite_Notdetected | 1.05 | < 5% | 1 | 0.92 | 0.11 | 0.99 | Active | – | – | –
C[C@H](NC(=O)OCC1c2ccccc2-c2ccccc21)C(=O)OCC[N+](C)(C)C | – | – | – | – | 5.1 µM | – | – | – | – | – | – | – | – | – | ~25% | ~20% | –
O=C(N[C@@H](Cc1ccccc1)C(=O)O)OCC1c2ccccc2-c2ccccc21 | – | – | – | – | 320 µM | – | – | – | – | – | – | – | – | – | – | – | –
O=S(=O)(F)Cc1ccccc1 | – | – | < 0.01 | – | – | – | – | < 0.01 | – | < 0.01 | – | – | – | – | – | – | Ratio [19]: 0.01
CC(C)C[C@H](NC(=O)OCC1c2ccccc2-c2ccccc21)C(=O)OCC[N+](C)(C)C | – | – | – | – | 0.7 µM | – | – | – | – | – | – | – | – | – | ~50% | ~20% | –
CC(C)(C)OC(=O)NCCCC[C@H](NC(=O)OCC1c2ccccc2-c2ccccc21)C(=O)OCC[N+](C)(C)C | – | – | – | – | 0.5 µM | – | – | – | – | – | – | – | – | – | ~25% | ~20% | –
C[N+](C)(C)CCOC(=O)CNC(=O)OCC1c2ccccc2-c2ccccc21 | – | – | – | – | 6.7 µM | – | – | – | – | – | – | – | – | – | ~100% | ~20% | –
CC(C)(C)OC(=O)NCCCC[C@H](NC(=O)OCC1c2ccccc2-c2ccccc21)C(=O)O | – | – | – | – | 41 µM | – | – | – | – | – | – | – | – | – | – | – | –
C[C@H](NC(=O)OCC1c2ccccc2-c2ccccc21)C(=O)NCC[N+](C)(C)C.[I-] | 1.02 | 0.13 | 0.44 | 0.98 | 7.5 µM | 0.97 | Metabolite_Notdetected | 1.01 | < 5% | 1 | 0.94 | 0.31 | 1.04 | Active | – | – | –
C[N+](C)(C)CCOC(=O)[C@H](Cc1ccccc1)NC(=O)OCC1c2ccccc2-c2ccccc21 | – | – | – | – | 1 µM | – | – | – | – | – | – | – | – | – | ~100% | ~20% | –
CC(C)(C)OC(=O)n1cc(C[C@H](NC(=O)OCC2c3ccccc3-c3ccccc32)C(=O)O)c2ccccc21 | – | – | – | – | 23 µM | – | – | – | – | – | – | – | – | – | – | – | –
CC(C)C[C@H](NC(=O)OCC1c2ccccc2-c2ccccc21)C(=O)O | – | – | – | – | 134 µM | – | – | – | – | – | – | – | – | – | – | – | –

From ChEMBL document CHEMBL5370562, “Synthesis and evaluation of Fmoc-amino esters and amides bearing a substrate like quaternary ammonium group as selective butyrylcholinesterase inhibitors” (Bioorg Med Chem Lett, 2023)
